Experiments:
[1] = biological target: Adenosine A2 receptor (Cavia porcellus); assay: In vitro effect on coronary vasodilation in guinea pig heart.
Adenosine receptor A1 = biological target: T1, Adenosine receptor A1 (Cavia porcellus, UniProt P47745); assay: In vitro prolonging of the stimulus-QRS interval in guinea pig heart.
T1 sequence (P47745 whole entry): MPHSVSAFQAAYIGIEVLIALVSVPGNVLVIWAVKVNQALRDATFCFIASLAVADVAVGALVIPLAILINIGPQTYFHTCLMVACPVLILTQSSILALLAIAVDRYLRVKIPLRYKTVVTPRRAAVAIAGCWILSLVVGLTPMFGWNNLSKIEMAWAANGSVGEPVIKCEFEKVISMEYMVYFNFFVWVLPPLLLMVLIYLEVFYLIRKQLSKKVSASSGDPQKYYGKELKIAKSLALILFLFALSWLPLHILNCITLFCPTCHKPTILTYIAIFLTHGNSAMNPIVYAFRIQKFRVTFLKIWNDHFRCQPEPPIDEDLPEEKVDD

Structure (SMILES)	-Log EC50 [1]	EC50 (Adenosine receptor A1) [µM]
CC(C)C/C=N/Nc1nc(N)c2ncn([C@@H]3O[C@H](CO)[C@@H](O)[C@H]3O)c2n1	9.33	20.9
Nc1nc(NCCC2=CCCCC2)nc2c1ncn2C1O[C@H](CO)[C@@H](O)[C@H]1O (stereo partly specified)	8.65	22.9
Nc1nc(N/N=C/C2=CCCCC2)nc2c1ncn2C1O[C@H](CO)[C@@H](O)[C@H]1O (stereo partly specified)		17.4
Nc1nc(N/N=C/CC2CCCCC2)nc2c1ncn2C1O[C@H](CO)[C@@H](O)[C@H]1O (stereo partly specified)	9.16	9.77
Nc1nc(N/N=C/CCC2CCCCC2)nc2c1ncn2C1O[C@H](CO)[C@@H](O)[C@H]1O (stereo partly specified)		66.1
Nc1nc(N/N=C/C2=CC3CCC2C3)nc2c1ncn2C1O[C@H](CO)[C@@H](O)[C@H]1O (stereo partly specified)	8.48	20.4
NNc1nc(N)c2ncn(C3O[C@H](CO)[C@@H](O)[C@H]3O)c2n1 (stereo partly specified)		20
CC(C)(C)/C=N/Nc1nc(N)c2ncn(C3O[C@H](CO)[C@@H](O)[C@H]3O)c2n1 (stereo partly specified)	7.46	25.1
CCCC/C=N/Nc1nc(N)c2ncn(C3O[C@H](CO)[C@@H](O)[C@H]3O)c2n1 (stereo partly specified)	8.99	25.1
CC1(C)C2CC=C(/C=N/Nc3nc(N)c4ncn(C5O[C@H](CO)[C@@H](O)[C@H]5O)c4n3)C1C2 (stereo partly specified)		25.7
Nc1nc(NCCC2CCCCC2)nc2c1ncn2C1O[C@H](CO)[C@@H](O)[C@H]1O (stereo partly specified)	8.72	12.3

Now from value to molecule:

-Log EC50 [1]	EC50 (Adenosine receptor A1) [µM]	Structure (SMILES)
8.54	11.5	CCC/C=N/Nc1nc(N)c2ncn(C3O[C@H](CO)[C@@H](O)[C@H]3O)c2n1 (stereo partly specified)
8.13	12.6	CC(C)/C=N/Nc1nc(N)c2ncn(C3O[C@H](CO)[C@@H](O)[C@H]3O)c2n1 (stereo partly specified)
7.12	3.63	C/C=N/Nc1nc(N)c2ncn(C3O[C@H](CO)[C@@H](O)[C@H]3O)c2n1 (stereo partly specified)
7.3	12	CC(C)=NNc1nc(N)c2ncn(C3O[C@H](CO)[C@@H](O)[C@H]3O)c2n1 (stereo partly specified)
7.88	13.5	CC/C=N/Nc1nc(N)c2ncn(C3O[C@H](CO)[C@@H](O)[C@H]3O)c2n1 (stereo partly specified)
8.24	11	CCC(/C=N/Nc1nc(N)c2ncn(C3O[C@H](CO)[C@@H](O)[C@H]3O)c2n1)CC (stereo partly specified)
	7.24	Nc1nc(N/N=C/C2CC=CCC2)nc2c1ncn2C1O[C@H](CO)[C@@H](O)[C@H]1O (stereo partly specified)
6.75	8.91	CCC(CC)=NNc1nc(N)c2ncn(C3O[C@H](CO)[C@@H](O)[C@H]3O)c2n1 (stereo partly specified)
8.7	16.6	CCC/C(C)=N/Nc1nc(N)c2ncn(C3O[C@H](CO)[C@@H](O)[C@H]3O)c2n1 (stereo partly specified)
	3.55	Nc1nc(N/N=C/C2CCCCC2)nc2c1ncn2[C@@H]1O[C@H](CO)[C@@H](O)[C@H]1O [BINODENOSON]

Reference: ChEMBL document CHEMBL1126185, “2-(N'-alkylidenehydrazino)adenosines: potent and selective coronary vasodilators” (J Med Chem, 1992)
